Results taken from patent publication US20230139328A1, “DOSAGE FORMS FOR IMPROVING ORGAN TRANSPLANTATION, GRAFT VERSUS HOST DISEASE AND STEM CELLS TRANSPLANTS” (Aphios Corporation, priority 2020, published 2023).
Entries after “also recorded” stand apart in the source; their conditions may differ.

Columns and labels:
Assay type in all cases: cell-based, human
[1] = test system: neutrophil migration; assay: Neutrophil migration induced by 24 h TNF-α pretreatment combined with a 100 nM LTB4 gradient; conditions: 24 h TNF-α pretreatment and 100 nM LTB4 gradient; data not shown
Protocol: Migration Assays: At confluency HMECs were treated for 1 h at 37° C. with Bryostatin-1 (10 nM, 100 nM) in MCDB-131 media or MCDB-131 media alone. Inserts were washed three times with Hank's Balanced Salt Solution (HBSS) (to eliminate drug effects on the neutrophils) and placed in a new plate containing either 500 μL 100 nM LTB4, or HBSS alone for control. 500 μL HBSS was then added to the top well and spiked with 500,000 neutrophils. For TNF-α experiments, HMECs were left in 20 ng/ml TNF-α in MCDB-131 for 24 h TNF-α was removed and HMECs washed three times. HMECs were treated for 1 h with Bryostatin-1 in endothelial growth medium (EGM) (10 nM, 100 nM). The drug was removed, and cells were washed three times. […] Neutrophils were allowed to migrate for 3 h at 37° C. Migration was stopped by removing the inserts and migration was measured using the myeloperoxidase (MPO) assay.
Myeloperoxidase Assay: Neutrophil migration was measured using myeloperoxidase (MPO) analysis. […] The supernatant was removed, and MPO activity was measured using TMB/peroxide as chromogen. The reaction was stopped with sulfuric acid and absorbance was read at 450 nm using a microplate reader. […] Data was expressed as “% neutrophil migration”, which allowed cumulative statistical analysis to be done and account for unpreventable batch-to-batch variations.

[2] = test system: HMEC; assay: Alamar blue endothelial viability assay, HMEC; conditions: single 1 h 100 nM treatment; 1, 24, 48 h
Protocol: (§1) Viability Assay. The Alamar blue assay was used to determine endothelial viability after pharmacological intervention. Alamar blue contains a REDOX indicator that results in a color change upon chemical reduction by cellular metabolic activity. Endothelial cells were treated with Bryostatin-1 (100 nM) for 1 h and washed three times with HBSS. Alamar blue (10%) in media was added for 2.5 h at T=0, 24, or 48 hours after drug treatment and the ratio of absorbances (570-600 nm) was measured to determine metabolic activity.

[3] = test system: HUVEC; assay: Alamar blue endothelial viability assay, HUVEC; conditions: for HUVEC viability at 48 h: 48 h after a single 1 h 100 nM treatment; for HUVEC viability at 1 and 24 h: single 1 h 100 nM treatment, 1, 24 h
Protocol: as §1

[4] = test system: neutrophil migration across confluent HMECs; assay: LTB4 induced neutrophil migration across HMEC monolayers (transwell, MPO assay); conditions: for effect on LTB4 induced neutrophil migration at 1 nM / effect on LTB4 induced neutrophil TEM at higher doses (100 nM): 1 h pretreatment, 100 nM LTB4; for effect on LTB4 induced neutrophil migration (dose response): 1 h pretreatment at 1-100 nM, 100 nM LTB4, 3 h migration
Protocol: FIG. 6 graphically depicts protection against LTB4 induced PMN TEM with PMA up to 48 h after pretreatment. HMECs were pretreated for 1 h with PMA and washed with HBSS three times to remove PMA prior to replacement of culture medium. Neutrophil migration studies were then performed at 0, 24, or 48 hours. Migration was stimulated by adding 500,000 neutrophils to the top well and 100 nM LTB4 to the lower well at 0, 24, and 48 hours after PMA pretreatment. […] PMA (100 nM, (10^−7M) reduced LTB4 induced migration up to 48 hours after 1 h of endothelial-specific pretreatment (***p<0.001).
Referring now to FIG. 7, FIG. 7 graphically depicts protection from LTB4 induced PMN TEM with Bryostatin-1 up to 48 hours after pretreatment. HMECs were pretreated for 1 h with Bryostatin-1 and washed with HBSS three times to remove Bryostatin-1 prior to replacement of culture medium. Neutrophil migration studies were then performed at 0, 24, or 48 hours. Migration was stimulated by adding 500,000 neutrophils to the top well and 100 nM LTB4 to the lower well at 0, 24, and 48 hours after Bryostatin-1 pretreatment. […] Bryostatin-1 (100 nM) reduced LTB4 induced migration up to 48 hours after 1-hour endothelial pretreatment (***p<0.001).
Cell Culture: HMECs were a generous gift from Dr. Francisco Candal (Centers for Disease Control), and are derived from the subcutaneous microvasculature. HMECs were maintained in MCDB-131 supplemented with 10% FCS, 1% antibiotic antimycotic, 10 ng/ml EGF, and […] hydrocortisone. The cell cultures were incubated at 37° C. in a humidified atmosphere with 7.5% CO2 and expanded by brief trypsinization (0.25% trypsin in phosphate-buffered saline containing 0.02% EDTA). HMECs were seeded onto 8 μm inserts for migration assays and 48-well plates for endothelial viability studies. Human umbilical vein endothelial cells (HUVECs) were harvested from umbilical cords by 0.25% collagenase treatment for 20 min at 37° C. HUVECs were maintained in Endothelial Growth Medium (EGM) supplemented with Bovine Brain Extract. The cell cultures were incubated at 37° C. in a 100% humidified atmosphere with 5% C02 and expanded by brief trypsinization. Primary passage HUVEC were seeded onto fibronectin coated (25 μg/ml)8 μm inserts for migration assays and 48-well plates for endothelial viability studies. Culture medium was replaced every second day. Cells were identified as endothelial cells by their cobblestone appearance at confluency, positive labeling with acetylated low density lipoprotein labeled with 1,11-dioctadecyl-1 3,3,31,31,3-tetramethylindocarbocyanine perchlorate (Dil-Ac-LDL; Biomedical Technologies, Inc.) and mouse antihuman factor […] (Calbiochem, San Diego, Calif.).
Neutrophil Isolation: Neutrophils were isolated using a Ficoll gradient. Whole blood was taken from human donors, and 5 ml was layered on top of two layers of Histopaque. Tubes were spun at 2,100 rpm for 40 min. The neutrophil layer was added to cold PBS and re-spun at 2,100 rpm for 5 min. Supernatant was removed and neutrophils were suspended in a fixed amount of PBS to determine cell count. Cells were kept on ice until assays were performed.
[…] Inserts were washed three times with Hank's Balanced Salt Solution (HBSS) (to eliminate drug effects on the neutrophils) and placed in a new plate containing either 500 μL 100 nM LTB4, or HBSS alone for control. 500 μL HBSS was then added to the top well and spiked with 500,000 neutrophils. For TNF-α experiments, HMECs were left in 20 ng/ml TNF-α in MCDB-131 for 24 h TNF-α was removed and HMECs washed three times. […] The drug was removed, and cells were washed three times. 500 μL HBSS was added to both upper and lower chambers and spiked with 500,000 neutrophils. Neutrophils were allowed to migrate for 3 h at 37° C. Migration was stopped by removing the inserts and migration was measured using the myeloperoxidase (MPO) assay.
Myeloperoxidase Assay: Neutrophil migration was measured using myeloperoxidase (MPO) analysis. […]

Compound	effect on migration induced by TNF-α pretreatment plus LTB4 gradient [1]	HMEC viability [2]	HUVEC viability at 48 h [3]	HUVEC viability at 1 and 24 h [3]	effect on LTB4 induced neutrophil migration at 1 nM [4]	effect on LTB4 induced neutrophil TEM at higher doses (100 nM) [4]	effect on LTB4 induced neutrophil migration (dose response) [4]	time after pretreatment for which reduction of LTB4 induced migration is maintained, HMECs ([4]; single 1 h 100 nM pretreatment, washed, tested at 0, 24, 48 h)
CCC/C=C/C=C/C(=O)O[C@H]1/C(=C/C(=O)OC)C[C@H]2C[C@H]([C@@H](C)O)OC(=O)C[C@H](O)C[C@@H]3C[C@H](OC(C)=O)C(C)(C)[C@](O)(C[C@@H]4C/C(=C/C(=O)OC)C[C@H](/C=C/C(C)(C)[C@]1(O)O2)O4)O3 [Bryostatin-1]	reduced migration	no effect	no effect	no effect	did not reduce PMN TEM	attenuated neutrophil TEM to levels below that of basal migration	dose-dependently reduced; also recorded: reduced LTB4 induced migration in a dose dependent manner	48 h
CCCCCCCCCCCCCC(=O)O[C@@H]1[C@@H](C)[C@@]2(O)[C@@H](C=C(CO)C[C@]3(O)C(=O)C(C)=C[C@@H]23)[C@@H]2C(C)(C)[C@]12OC(C)=O [PMA, phorbol myristate acetate]	reduced migration	no effect	slight but significant reduction in viability	no effect	did not reduce PMN TEM; also recorded: had no effect	attenuated neutrophil TEM to levels below that of basal migration	dose-dependently reduced; also recorded: reduced LTB4 induced migration in a dose dependent manner	
